Assay results as given in patent US12077503B2, “Substituted cyclic amides and their use as herbicides” (FMC CORPORATION, priority 2015, dated 2024).

Tests used:
Assay in all cases: Test A postemergence
Assay type in all cases: in vivo
[1] = system: giant foxtail (Setaria faberii); conditions: Setaria faberi, post-emergence, 240 h, postemergence; for pest or weed control at 125 g/ha: 125 g ai/ha, visual injury vs untreated controls after approx. 10 d, 0 = no effect, 100 = complete control, read-out: Foxtail, Giant plant response rating (0 to 100 scale); for pest or weed control at 500 g/ha: 500 g ai/ha, 0 to 100 scale, 0 is no effect, 100 is complete control, read-out: Foxtail, Giant plant response rating
Method in brief: (§1)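 Visual injury, scored on a 0–100 scale relative to untreated controls, was recorded about 10 d after application. Treatments were a preemergence soil spray over planted seeds or a postemergence spray on plants at the one- to two-leaf stage, 2 to 10 cm tall, all in loam soil–sand blend in the greenhouse.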

[2] = system: barnyardgrass (Echinochloa crus-galli); conditions: Echinochloa crus-galli, post-emergence, 240 h, postemergence; for pest or weed control at 125 g/ha: 125 g ai/ha, visual injury vs untreated controls after approx. 10 d, 0 = no effect, 100 = complete control, read-out: Barnyardgrass plant response rating (0 to 100 scale); for pest or weed control at 500 g/ha: 500 g ai/ha, 0 to 100 scale, 0 is no effect, 100 is complete control, read-out: Barnyardgrass plant response rating
Method in brief: as §1

corn (Zea mays) = conditions: Zea mays, post-emergence, 240 h, postemergence; for plant injury at 125 g/ha: 125 g ai/ha, visual injury vs untreated controls after approx. 10 d, 0 = no effect, 100 = complete control, read-out: Corn plant response rating (0 to 100 scale); for plant injury at 500 g/ha: 500 g ai/ha, 0 to 100 scale, 0 is no effect, 100 is complete control, read-out: Corn plant response rating
Method in brief: as §1

[3] = system: pigweed (Amaranthus retroflexus); conditions: Amaranthus retroflexus, post-emergence, 240 h, postemergence; for pest or weed control at 125 g/ha: 125 g ai/ha, visual injury vs untreated controls after approx. 10 d, 0 = no effect, 100 = complete control, read-out: Pigweed plant response rating (0 to 100 scale); for pest or weed control at 500 g/ha: 500 g ai/ha, 0 to 100 scale, 0 is no effect, 100 is complete control, read-out: Pigweed plant response rating
Method in brief: as §1

[4] = system: blackgrass (Alopecurus myosuroides); conditions: Alopecurus myosuroides, post-emergence, 240 h, postemergence; for pest or weed control at 125 g/ha: 125 g ai/ha, visual injury vs untreated controls after approx. 10 d, 0 = no effect, 100 = complete control, read-out: Blackgrass plant response rating (0 to 100 scale); for pest or weed control at 500 g/ha: 500 g ai/ha, 0 to 100 scale, 0 is no effect, 100 is complete control, read-out: Blackgrass plant response rating
Method in brief: as §1

| SMILES | pest or weed control at 125 g/ha [1] [%] | pest or weed control at 500 g/ha [1] [%] | pest or weed control at 125 g/ha [2] [%] | pest or weed control at 500 g/ha [2] [%] | plant injury at 125 g/ha (corn (Zea mays)) [%] | plant injury at 500 g/ha (corn (Zea mays)) [%] | pest or weed control at 125 g/ha [3] [%] | pest or weed control at 500 g/ha [3] [%] | pest or weed control at 125 g/ha [4] [%] | pest or weed control at 500 g/ha [4] [%] |
| --- | --- | --- | --- | --- | --- | --- | --- | --- | --- | --- |
| CCc1cc([C@H]2CN(C)C(=O)[C@@H]2C(=O)Nc2cccc(F)c2F)cs1 [Compound 1157] | 90 | 90 | 90 | 90 | 40 | 50 | 0 | 0 | 0 | 50 |
| CN1CC[C@H](c2cccc(C(F)(F)F)c2)[C@@H](C(=O)Nc2cccc(F)c2Cl)C1=O [Compound 1158] | 80 | 80 | 90 | 90 | 20 | 60 | 0 | 0 | 20 | 40 |
| Cc1nc([C@H]2CNC(=O)[C@@H]2C(=O)Nc2ccccc2F)cs1 [Compound 1179] | 0 | 0 | 0 | 0 | 0 | 0 | 0 | 0 | 0 | 0 |
| Cc1cc([C@H]2CN(C)C(=O)[C@@H]2C(=O)Nc2ccccc2F)on1 [Compound 1195] | 0 | 20 | 0 | 20 | 0 | 0 | 0 | 0 | 0 | 0 |
| CSc1ccccc1NC(=O)[C@H]1C(=O)N(C)C[C@@H]1c1ccc(OC(F)F)cc1 [Compound 1212] | 70 | 90 | 80 | 100 | 0 | 20 | 50 | 70 | 0 | 30 |
| Cc1ccc([C@H]2CCN(C)C(=O)[C@@H]2C(=O)Nc2ccc(F)c(F)c2F)cc1 [Compound 1221] | 90 | 90 | 30 | 60 | 0 | 60 | 0 | 0 | 60 | 70 |
| CSc1ccccc1NC(=O)[C@H]1C(=O)N(C)CC[C@@H]1c1ccc(C)cc1 [Compound 1222] | 20 | 70 | 0 | 0 | 0 | 0 | 0 | 0 | 0 | 0 |
| Cc1c(F)cccc1NC(=O)[C@H]1C(=O)N(C)C[C@@H]1c1ccc(F)cc1 [Compound 1235] | 80 | 90 | 90 | 100 | 70 | 100 | 0 | 50 | 30 | 40 |
